“And” between values parts separate entries of the source, which are not always exact repeats. Identical values can stand only once.
Tests used:
[1] = GLP 28-day repeat oral dose toxicity and toxicokinetics, minipig; format: in vivo
Description: Reference source not found.6.
These findings were reversible on cessation of drug administration.
The MTD was 75 mg/kg/day (225 mg/m^2/day) in the mouse and the HNSTD was […] (350 mg/m^2/day) in the minipig.

Single dose PK, dog = format: in vivo; details: Dog oral 5 mg/kg single dose
From the text: Several studies have been conducted to evaluate the PK properties of SRA737, such as the absorption (in vitro permeability assays and in vivo PK following IV and oral administration), distribution (in vivo tissue distribution and in vitro plasma protein binding) and metabolism (in vitro hepatocyte and CYP inhibition and induction studies) of SRA737.
(§1) The PK of SRA737 have been determined in the mouse, rat, dog and monkey following oral and IV administration (Table 3). […] An acceptable terminal elimination t1/2 was also observed in each species. […] The plasma protein binding of SRA737 at 1 and 10 μM was examined in mouse, minipig, monkey and human plasma using ultracentrifugation and in dog plasma (10 μM) using rapid equilibrium dialysis.

[2] = Excretion in urine and feces, rats; format: in vivo; details: rat, over 24 hours
Description: The excretion of SRA737 has been studied in mice and rats administered SRA737 at either 5 mg/kg IV or 10 mg/kg orally. Urine and feces were collected for a 24-hour period after dosing. In mice, renal excretion of intact SRA737 was consistently low (less than 10% of dose) after both oral and IV administration. Following IV administration of SRA737, less than 8% of the dose was recovered as intact drug in the feces while after oral administration this figure was less than 3%. Excretion of intact SRA737 was lower in the rat than in the mouse with <1% of dose excreted renally over 24 hours and less than 1.5% of dose excreted into the feces over 24 hours.

plasma protein [3] = experiment: Plasma protein binding, ultracentrifugation, mouse plasma; format: in vitro ADME; details: for Percentage Bound / Percentage Free: Mouse plasma
Description: as §1

plasma protein [4] = experiment: Plasma protein binding, ultracentrifugation, minipig plasma; format: in vitro ADME
Description: as §1

[5] = system: cryopreserved hepatocytes; experiment: Stability in cryopreserved rat hepatocytes; format: in vitro ADME; details: 10 μM, after 4 hours of incubation
Description: The formation of SRA737-related metabolites was determined in cryopreserved hepatocytes from human, mouse, rat, dog, minipig and monkey samples after incubation with SRA737 at a nominal concentration of 10 μM for up to 4 hours. […] In the human hepatocyte preparation, approximately 67% of the parent remained after 4 hours of incubation compared to 75% and 7% in the rat and minipig preparations, respectively. Eight human SRA737 metabolites were observed. All SRA737 metabolites formed by human hepatocytes were also formed by monkey hepatocytes. Six metabolites were present at equal or greater abundance in the monkey.

[6] = system: genetically defined tumors (HGSOC, CRC, mCRPC, NSCLC, SCCHN, SCCA); experiment: SRA737 monotherapy clinical study (SRA737-01), anti-tumor activity per RECIST v1.1; format: in vivo, human
Description: An in-human clinical trial is conducted to confirm efficacy of SRA737 monotherapy methods of treatment and patient selection strategies disclosed herein for prospectively-selected genetically-defined subjects with tumor types known to have a high prevalence of genomic alterations expected to sensitize the tumor to Chk1 inhibition (“Cohort Expansion Phase”). The Cohort Expansion Phase consists of 6 indication-specific expansion cohorts of approximately 20 prospectively-selected genetically-defined subjects each. The cohorts are subjects with previously treated metastatic colorectal cancer [CRC], high grade serous ovarian cancer [HGSOC] without CCNE1 gene amplification, HGSOC with CCNE1 gene amplification (or alternative genetic alteration with similar functional effect), metastatic castration-resistant prostate cancer [mCRPC], advanced non-small cell lung cancer [NSCLC], and squamous cell carcinoma of the head and neck [HNSCC], or squamous cell carcinoma of the anus [SCCA]. Subjects are initially administered SRA737 following the dosing regimen established in Example 4. The dosing regimen in some cases changes during the course of the trial.
All subjects who have measurable disease, receive at least one cycle of SRA737 and have a baseline plus at least 1 post-baseline assessment of disease are evaluable for response. Subjects who develop clear evidence of PD without a formal disease assessment and those without a formal disease assessment before study withdrawal are considered non-responders. Complete responses and PRs are required to be confirmed by a subsequent assessment at least 4 weeks later. Stable Disease (SD) determination requires that the relevant criteria be met at least once, a minimum of 6 weeks after the initial dose of SRA737 is given.
Response criteria are defined below: • a. Complete Response (CR): Disappearance of all target lesions. Any pathological lymph nodes (whether target or non-target), in general, have reduction in short axis to <10 mm. • b. Partial Response (PR): At least a 30% decrease in the sum of diameters of target lesions, taking as reference the baseline sum diameters. • c. Progressive Disease (PD): At least a 20% increase in the sum of diameters of target lesions, taking as reference the smallest sum on study (this includes the baseline sum if that is the smallest on study). […] (Note: the appearance of one or more new lesions is also considered progression). • d. Stable Disease (SD): Neither sufficient shrinkage to qualify for PR nor sufficient increase to qualify for PD, taking as reference the smallest sum diameters while on study.
The Cohort Expansion phase was contemporaneously initiated when circulating plasma concentrations of SRA737 exceeded the minimum effective concentration of SRA737 modelled from murine efficacy studies. Thereafter, experience gained in the ongoing Dose Escalation phase informed dose selection for expansion cohorts. The Cohort Expansion phase enrolled subjects with genetically defined tumors that harbored genomic alterations hypothesized to confer sensitivity to Chk1 inhibition, which were prospectively selected by next-generation sequencing (FoundationOne). Subjects with the following tumors were eligible for enrollment: ia) high grade serous ovarian cancer (HGSOC), ib) HGSOC putatively enriched for CCNE1 gene network amplification, ii) colorectal cancer (CRC), iii) metastatic castration-resistant prostate cancer (mCRPC), iv) non-small cell lung cancer (NSCLC), and v) squamous cell carcinomas (head and neck (SCCHN); anus (SCCA)).
Preliminary anti-tumor activity was assessed by target tumor response and overall response in accordance with RECIST v1.1.

[7] = FA/BRCA gene network alterations

With N#Cc1cnc(Nc2cc(NCC3CNCCO3)c(C(F)(F)F)cn2)cn1 (stereo not shown) [SRA737, 5-[[4-[[morpholin-2-yl]methylamino]-5-(trifluoromethyl)-2-pyridyl]amino]pyrazine-2-carbonitrile] the “changes in reproductive organs” value ([1]; minipig) was “changes in reproductive organs, particularly the testes, were also observed”, the “toxicological findings in the GI tract” value ([1]; minipig) was “Toxicological findings in the GI tract were also observed” and the dose-dependent toxicological findings ([1]; minipig pivotal study, reversible on cessation of drug administration) was “bone marrow toxicity”. For the same compound, the Foral (Single dose PK, dog) was 86%, the “intact SRA737 excreted into the feces” value [2] was “less than 1.5 % of dose” and the “intact SRA737 excreted renally” value [2] was < 1 % of dose. For the same compound, the “Percentage Bound” value (plasma protein [3]; 1 μM) was 94.5%, the “Percentage Free” value (plasma protein [3]; 1 μM) was 5.5% and the “Percentage Bound” value (plasma protein [3]; 10 μM) was 93.4%. For the same compound, the “Percentage Free” value (plasma protein [3]; 10 μM) was 6.6%, the plasma protein binding (plasma protein [3]; mouse) was ~94% and the “Percentage Bound” value (plasma protein [4]; 1 μM) was 85.2%. For the same compound, the “Percentage Free” value (plasma protein [4]; 1 μM) was 14.9%, the “Percentage Bound” value (plasma protein [4]; 10 μM) was 75.5% and the “Percentage Free” value (plasma protein [4]; 10 μM) was 24.5%. The parent remaining [5] was 75%, the “confirmed RECIST partial or complete response” value [6] was “no subject had a confirmed RECIST partial or complete response” and the “responses of subjects with unambiguously positive CCNE1 amplification” value ([6]; 4/24 HGSOC subjects) was 3 SD and 1 Progressive Disease (PD). For the same compound, the “subjects with best overall response of SD” value ([6]; 107 subjects treated) was 34 (32%) n (%), the DCR ([6]; CCNE gene network alterations) was 67% and the DCR [6, 7] was 71%. For the same compound, the DOS [6, 7] was 3.8 cycles, the “Disease Control Rate (DCR)” value ([6]; HGSOC cohort) was 54% and the “maximal target tumor decreases” value ([6]; HGSOC subjects) was 27% and 29%. The “anti-tumor activity by tumor type” value ([6]; HGSOC, CRC, mCRPC and NSCLC tumors) was “Anti-tumor activity was observed”, the DCR ([6]; PI3K gene network alterations (PIK3CA, AKT, PTEN)) was 77% and the PDs ([6]; RAS network mutations) was 15/20. The “duration on study (DOS)” value ([6]; RAS network mutations) was 2 cycles, the “overall average tumor % change” value ([6]; RAS network mutations) was “+20%” and the DCR ([6]; activating mutations in the RAS network) was 25%. For the same compound, the “subjects with durable stable disease (SD) lasting ≥4 months” value ([6]; data cut off 3 May 2019) was 22 (21%) n (%).
